Values of other authors as cited in patent US10851274B2, “Coolant mixtures for use in heat-exchange devices in the aerospace field” (Safran Electrical & Power, priority 2016, dated 2020).

How the values were obtained:
[1] = known fluids; for FP: water and antigels, criterion ≥23
[2] = for Toxicity: known coolant fluids, water and antigels, criterion: No; for Toxicity (in words): known fluids
[3] = known fluids, water and antigels; criterion >500
[4] = known fluids, water and antigels; criterion <100

| SMILES | FP [1] | Toxicity [2] | ΔHvap [3] | Tb [4] | Flammability (in words) [1] | Toxicity (in words) [2] |
| --- | --- | --- | --- | --- | --- | --- |
| CCOCC(C)O (stereo not shown) [1-ethoxy-2-propanol] | 42 °C | No (a fluid is non-toxic if its oral LD50 is greater than 500 mg/kg) | 308 kJ/kg | 132 °C |  |  |
| COCC(C)O (stereo not shown) [1-methoxy-2-propanol] | 34 °C | No (a fluid is non-toxic if its oral LD50 is greater than 500 mg/kg) | 461 kJ/kg | 118 °C |  |  |
| CC(C)=O [Acetone] | −20 °C | No (a fluid is non-toxic if its oral LD50 is greater than 500 mg/kg) | 501 kJ/kg | 57 °C | highly flammable |  |
| N [Ammoniac, ammonia] | 132 °C | Yes | 1371 kJ/kg | −33 °C |  | toxic |
| O=C=O [Carbon dioxide] | None | No (a fluid is non-toxic if its oral LD50 is greater than 500 mg/kg) | 400 kJ/kg | −57 °C |  |  |
| CCO [Ethanol] | 13 °C | No (a fluid is non-toxic if its oral LD50 is greater than 500 mg/kg) | 837 kJ/kg | 78 °C | highly flammable |  |
| CCOC(F)(F)C(F)(F)C(F)(F)C(F)(F)F [HFE 3M Novec 7100, ethoxynonafluorobutane] | None | No (a fluid is non-toxic if its oral LD50 is greater than 500 mg/kg) | 126 kJ/kg | 76 °C |  |  |
| CO [Methanol] | 11 °C | Yes | 1098 kJ/kg | 64 °C | highly flammable |  |
| CC(O)CO (stereo not shown) [Propylene-glycol, propylene glycol] | 107 °C | No (a fluid is non-toxic if its oral LD50 is greater than 500 mg/kg) | 736 kJ/kg | 187 °C |  |  |
| O [Water] | None | No (a fluid is non-toxic if its oral LD50 is greater than 500 mg/kg) |  | 100 °C | fireproof | non-toxic |
| OCCO [ethylene glycol] |  |  |  |  |  | highly toxic |
